The values below come from patent US9688653B2, “Ethoxyphenyl thienyl compounds and methods for the treatment of bacterial infections” (Duke University, priority 2013, dated 2017).

Entries after “also recorded” stand apart in the source; their conditions may differ. Where two headings read alike, the source gives them in different places. Some results are limits rather than exact numbers.

The term inhibition denotes the percentage by which the read-out fell short of the control. As usually defined, the IC50 is the concentration at which inhibition is half-maximal.

One data set in a line: in vitro. Conditions: human (5637 cells, CC50), Escherichia coli (UTI89, IC50), Fold Selective (CC50/IC50). The method in brief: (§1)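 UTI89 cultures in LB with 0.5% DMSO were preincubated 2 hr at 37 °C with compounds (100 μM in screen), then with K1F phage a further 2 hr. Viability was read as Alamar Blue fluorescence. Phage-lysis inhibition is relative to plate bacterial controls; IC50 by 4-parameter fit locked at 0 and 100.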

For the next data set, the system named is E. coli K1 strain UTI89. Nature of the data set: microbe, parasite or virus in culture. To be noted: for Selectivity index (CC50/IC50): versus bladder 5637 cells. In short, it runs like this:
as §1

The subject of the next data set is E. coli UTI89. Nature of the data set: Human serum sensitization (MTT). In kind it is cell-based, Escherichia coli. Conditions: 50 μM compound, p=0.0067 versus control; listed as DU011. As to the method:
Human serum sensitization by capsule inhibitor treatment. Overnight cultures of UTI89 were diluted 1:100 and grown with or without 50 μM compound for approximately 1.5 hrs on a shaker at 37° C. Then 25 μL of anonymous, non-identified, sterile filtered pooled human serum (purchased from Equitech Bio) was added per 100 μL of growth media. This was returned to the shaker for another 3 hrs, after which 20 μL of 5 mg/mL MTT (3-(4,5-Dimethylthiazol-2-yl)-2,5-diphenyltetrazolium bromide) was added. MTT is reduced to purple formazan by bacterial reductase enzymes, thus measuring viable bacteria. This was shaken for another 15 min at 37° C. The sample was spun to remove the growth media, followed by two washes with PBS. The formazan crystals were dissolved in 100 μL of DMSO and measured at OD570.

As to `CCOc1ccc(-c2cc(NC(=O)c3c(F)cccc3F)c(C(=O)O)s2)cc1` [ML317, 3-(2,6-difluorobenzamido)-5-(4-ethoxyphenyl)thiophene-2-carboxylic acid], the selectivity ratio in the data set “in vitro” (commercial sample, SID 103147605) is 10.5; in the data set “in vitro” (synthesized sample, SID 126497311), 27.3. Moreover, the inhibition at 100 µM in the data set with E. coli K1 strain UTI89 (Escherichia coli, read-out: % Inhibition at 100 μM) is 9.12%. Moreover, the IC50 in the data set with E. coli K1 strain UTI89 (Escherichia coli, read-out: K1 Capsule IC50, commercial sample, SID 103147605) came to 4.5 ± 2.4 µM; in the data set on E. coli K1 strain UTI89 (Escherichia coli, read-out: K1 Capsule IC50, synthesized sample, SID 126497311) it was 1.89 ± 1.56 µM; with E. coli K1 strain UTI89 (Escherichia coli, read-out: K1 phage IC50, first round of synthetic analogues, n = 3), 1.89 µM; in the data set with E. coli K1 strain UTI89 (Escherichia coli, read-out: K1 phage IC50, purchased analogue series, n = 3) it was 4.5 µM. The “Selectivity (Cyt./K1)” value in the data set with E. coli K1 strain UTI89 (first round of synthetic analogues) was 27.3; in the data set with E. coli K1 strain UTI89 (purchased analogue series) it was 10.49. In addition, the “Selectivity index (CC50/IC50)” value is listed as over 10 with E. coli K1 strain UTI89 and 10.49 with E. coli K1 strain UTI89 (listed as CID 23602075). In addition, the “Sensitivity of UTI89 to pooled human serum (MTT)” value in the data set on E. coli UTI89 is reported as “further increased serum-mediated killing; also recorded: significantly more sensitive”.
